Here are results for three molecules from patent publication US20100331311A1 (priority 2005, published 2010).

In series [1] the test system is retinal ganglion cells (RGCs). The series is classed as in vivo, Sprague-Dawley rats.
For series [2] the following is noted: mouse, in vivo; cited from earlier work.
The subject of series [3] is glaucomatous and normal (contralateral) eyes. Details: species or system Brown Norway rats. Particulars: rat, in vivo, 3.5 mg/kg. On the procedure: IOP from glaucomatous and normal (contralateral) eyes was measured in awake animals using a calibrated tonometer (TonoPen XL, Medtronic Solan, Jacksonville, Fla.). Ten to fifteen consecutive readings per eye were taken and averaged to obtain an accurate daily IOP measurement. IOP was measured daily for two weeks after ocular hypertension surgery, and then every other day for the entire duration of the experiment. The mean IOP (mm Hg±S.E.M.) per eye was the average of all IOP readings since the onset of pressure elevation. The maximum IOP measured in each individual eye, glaucomatous or normal contralateral eye, was defined as the peak IOP and this value was used to estimate the mean peak IOP for each group. The delta positive integral IOP was calculated as the area under the IOP curve in the glaucomatous eye minus that of the fellow normal eye from ocular hypertension surgery to euthanasia. Integral IOP represents the total, cumulative IOP exposure throughout the entire experiment.
For this purpose, Applicant measured intraocular pressure every other day for entire duration of daily treatment with galantamine up to 35 days after ocular hypertension (OHT) surgery.

The conditions of series [4]: human, in vivo; cited from earlier work.
In series [5] the test system is retinal ganglion cells (RGCs). Details: species or system Brown Norway rats. Particulars: rat, in vivo, ip, 3.5 mg/kg.
Procedure: Two weeks after ocular hypertension surgery, animals were subjected to daily treatment with galantamine ˜3.5 mg/kg body weight, intraperitoneal administration (i.p.). Analysis of RGC survival was carried out at 5 weeks after ocular hypertension surgery.
Therefore, two weeks after ocular hypertension surgery, animals received daily intraperitoneal (i.p) injections of galantamine at a dose of 3.5 mg/kg b.w. as shown in FIG. 2.
All surgeries were performed in adult male Brown Norway rats, retired breeders, between 10-12 months of age (300-400 g), under general anesthesia by intraperitoneal injection of 1 ml/kg b.w. standard rat cocktail consisting of ketamine (100 mg/ml), xylazine (20 mg/ml) and acepromazine (10 mg/ml).
Seven days after DiI application, the time required for labeling the entire RGC population, animals were subjected to ocular hypertension surgery as described below. […]
Analysis of RGC survival was carried out at 5 weeks after ocular hypertension surgery. Quantification of RGC bodies or axons was always performed in duplicate and in a masked fashion. […] Under fluorescence microscopy, DiI-labeled or FluoroGold-labeled neurons were counted in 12 standard retinal areas as previously described (Cheng et al. 2002; Sapieha et al. 2003).
The target of series [6] is alpha-7 nicotinic acetylcholine receptor (Rattus norvegicus, UniProt Q05941). Details: species or system Sprague-Dawley rats. Particulars: in vivo.
Sequence of alpha-7 nicotinic acetylcholine receptor (Q05941 23-502 limits assumed): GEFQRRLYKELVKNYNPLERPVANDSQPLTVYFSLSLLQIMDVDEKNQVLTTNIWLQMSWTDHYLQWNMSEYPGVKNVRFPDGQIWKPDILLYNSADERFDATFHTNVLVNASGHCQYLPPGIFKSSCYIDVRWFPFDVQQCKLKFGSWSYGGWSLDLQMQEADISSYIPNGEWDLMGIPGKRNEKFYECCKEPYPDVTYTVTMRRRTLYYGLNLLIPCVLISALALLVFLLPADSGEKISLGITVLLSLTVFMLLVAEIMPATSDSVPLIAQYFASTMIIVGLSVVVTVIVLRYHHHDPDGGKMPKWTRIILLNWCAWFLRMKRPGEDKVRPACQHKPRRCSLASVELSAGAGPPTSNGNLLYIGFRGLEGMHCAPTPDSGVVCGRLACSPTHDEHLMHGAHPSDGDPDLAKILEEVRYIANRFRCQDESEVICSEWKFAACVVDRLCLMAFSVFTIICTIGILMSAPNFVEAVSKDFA

Consider `COc1ccc2c3c1O[C@H]1C[C@@H](O)C=C[C@@]31CCN(C)C2` [Galantamine, galantamine], for which, in series [1] (rat, in vivo), the RGCs remaining alive is reported as around 30% and the “survival of axotomized RGCs” value is recorded as above 75%. The brain levels in series [2] was 200 to 1000 nM. In series [3], the “Integral IOP” value is given as 321 ± 10 mm Hg, the “Mean IOP Control” value amounted to 23.7 ± 0.2 mm Hg and the “Mean IOP Glaucoma” value was 40.7 ± 0.8 mm Hg. Also, the “estimated brain concentration of functionally available galantamine” value in series [4] was 500 to 1200 nM. For the same molecule, the RGCs preserved in series [5] was determined as 90%.

In the case of Alpha-bungarotoxin, in series [6], the “block of the total neuroprotective effect of galantamine” value is reported as 10-15%.

For the molecule `COc1cc2c(cc1OC)C(=O)C(CC1CCN(Cc3ccccc3)CC1)C2` (stereo not shown) [Donepezil, donepezil], in series [1] (3.5 mg/kg b.w., single intraocular injection, 1 week after optic nerve axotomy), the “neuroprotection of RGCs after axotomy, galantamine vs donepezil (in words)” value was “neuroprotective after axotomy”.
